Values of other authors as cited in US20260183243A1, “PHARMACEUTICAL COMPOSITIONS OF NOR-UDCA” (SHILPA MEDICARE LIMITED, priority 2022, published 2026).

Conditions: background statement, no test described

## C[C@H](CC(=O)O)[C@H]1CC[C@H]2[C@@H]3[C@@H](O)C[C@@H]4C[C@H](O)CC[C@]4(C)[C@H]3CC[C@]12C [Nor-UDCA, 24-nor-ursodeoxycholic acid]
  solubility in an aqueous medium: poorly soluble
